“Also recorded” adds a separate entry of the source.
Columns and labels:
[1] = system: α-mannosidase gene expression; test: Geraniol/ACC treatment of seedlings, real-time RT-PCR of mannosidase expression; assay type: in vivo, tomato (Pusa Ruby); details: for regulation of α-mannosidase expression: rin and/or wild type, relative to control
Description: Geraniol is an acyclic dietary monoterpene, having in vitro and in vivo antitumor activity against various cancer cell lines and is therefore considered as a new class of agents for cancer chemoprevention. It was also reported that geraniol interferes with the membrane functions of Candida albicans and Saccharomyces cervisiae. […] This instigated us to further analyze the role of geraniol on α-mannosidase induction in pleiotropic rin mutant. The rin seedlings were fed with 10% geraniol and samples collected.
RNA was isolated according to the Lithium chloride method and quantified using nanodrop (ND-100). 5 μg of total RNA was reverse transcribed to cDNA using superscript II (Invitrogen). Quantitative RT-PCR was performed using light Cycler Version 4.05 (Roche diagnostics) with cyber green. The cycle consisted of initial 10 min Taq activation at 95° C. followed by 45 cycles, consisting of 10 s at 94° C., 10 s at 55° C. and 10 s at 72° C. Then the melt curve analysis was performed to verify the fidelity of the amplification. Using the 2^−ΔΔ CT method, the data is presented as the fold change in gene expression normalized to an endogenous reference gene and relative to the control. The gene encoding actin was used as the endogenous control.
Pusa Ruby seeds were sterilized and germinated on MS medium. After 15 days the seedlings were transferred to a liquid media containing 10 mM geraniol in 20% DMSO or 1 mM ACC (1-aminocyclopropane-1-carboxylic acid) in water. The RNA was isolated from the harvested sample and reverse transcribed to cDNA for real-time RT-PCR analysis. Expression was calculated relative to the control seedlings (0 hr).

tomato α-mannosidase [2] = target: T1, tomato α-mannosidase (Solanum lycopersicum, UniProt D3TI68); test: N-linked oligosaccharide cleavage, HPAE chromatography; assay type: biochemical; details: incubated at 37° C. overnight, Carbopac PA-1 column
Experimental: (§1) The temperature and pH optimum for the enzyme was 45° C. and pH 6.0, respectively. […] To identify the nature of the tomato α-mannosidase it was resolved on SDS-PAGE and subjected to PAS staining, the protein stained positive for glycoproteins. […] In order to correlate specific activity at particular ripening stage with the protein accumulation, immunoblot analysis of all the stages was done using polyclonal antibody raised against 70 kD subunit of the protein homologus to α-mannosidase. […] Our finding was further reinforced by a report in Arabidopsis which classified α-mannosidase homologue (Q8LPJ3) into cell wall protein with a signal peptide for secretion. To decipher the role of α-mannosidase on N-glycans and their processing, we targeted three N-linked oligosaccharides (Oligomannose-3, Oligomannose-5 and Oligomannose-9) commonly found in the fruit pericarp. To verify its action on N-glycans, α-mannosidase was incubated with N-linked oligosaccharides at 37° C. overnight and the reaction mixture was resolved on Carbopac PA-1 column.
One μg of protein was incubated with 100 ng each of N-linked oligosaccharides (Dextra, U.K) at 37° C. overnight and the sample was filtered through PVDF membrane to remove the enzyme. 10 μl of the filtered sample was used for the analysis. An HPAE-PAD system (Dionex DX 500 BioLC) equipped with a gradient pump (GP 40), an anion exchange column (Carbopac PA-1, 4×250 mm) an eluant degas module (EDM-2) for pressurizing the eluants with argon was used for the analysis of monosaccharides. The separated monosaccharides were detected by an ED 40 detector equipped with a gold electrode and an Ag/AgCl reference electrode. The resulting chromatographic data was integrated and plotted using a PC based oracle 2 data acquisition system (Indtech Analytical, Bombay), The standard (mannose) was injected at a concentration of 100 nmoles before and after the analysis of each sample to confirm the results. This confirmed the N-glycan processing ability of mannosidase

[3] = cited from earlier work
[4] = substrate: O=[N+]([O-])c1ccc(O[C@H]2O[C@H](CO)[C@@H](O)[C@H](O)[C@@H]2O)cc1; test: Mannosidase enzyme assay and biochemical characterization; design: species or system tomato (Solanum lycopersicum); details: other: purified tomato enzyme; pH 6.0
Experimental: as §1
Mannosidase was assayed in one ml of the reaction mixture consisting of 940 μl of MQ, 20 μl of 20 mM substrate (pNP-α-D-mannopyrinoside) and 20 μl aliquot of the enzyme at 37° C. for 15 min along with a blank devoid of the enzyme. […] The colour developed as result of pNP release was recorded at 405 nm and quantified using a standard curve.

tomato α-mannosidase [5] = target: T1, tomato α-mannosidase; test: as above
Experimental: as §1
Mannosidase was assayed in one ml of the reaction mixture consisting of 940 μl of MQ, 20 μl of 20 mM substrate (pNP-α-D-mannopyrinoside) and 20 μl aliquot of the enzyme at 37° C. for 15 min along with a blank devoid of the enzyme. The reaction was stopped by adding of 40 μl of 0.5M Na2CO3. The colour developed as result of pNP release was recorded at 405 nm and quantified using a standard curve.

Molecule: NC1(C(=O)O)CC1 [ACC, 1-aminocyclopropane-1-carboxylic acid]
- regulation of α-mannosidase expression ([1]; seedlings): up regulate

Molecule: CC(=O)N[C@H]1[C@H](O[C@H]2[C@H](O)[C@@H](NC(C)=O)C(O)O[C@@H]2CO)O[C@H](CO)[C@@H](O[C@@H]2O[C@H](CO[C@H]3O[C@H](CO)[C@@H](O)[C@H](O)[C@@H]3O)[C@@H](O)[C@H](O[C@H]3O[C@H](CO)[C@@H](O)[C@H](O)[C@@H]3O)[C@@H]2O)[C@@H]1O (stereo partly drawn) [Oligomannose-3]
- cleavage by α-mannosidase (tomato α-mannosidase [2]): able to cleave terminal mannose residue/s

Molecule: CC(=O)N[C@H]1[C@H](O[C@H]2[C@H](O)[C@@H](NC(C)=O)C(O)O[C@@H]2CO)O[C@H](CO)[C@@H](O[C@@H]2O[C@H](CO[C@H]3O[C@H](CO[C@H]4O[C@H](CO)[C@@H](O)[C@H](O)[C@@H]4O)[C@@H](O)[C@H](O[C@H]4O[C@H](CO)[C@@H](O)[C@H](O)[C@@H]4O)[C@@H]3O)[C@@H](O)[C@H](O[C@H]3O[C@H](CO)[C@@H](O)[C@H](O)[C@@H]3O)[C@@H]2O)[C@@H]1O (stereo partly drawn) [Oligomannose-5]
- cleavage by α-mannosidase (tomato α-mannosidase [2]): able to cleave terminal mannose residue/s

Molecule: CC(=O)N[C@H]1[C@H](O[C@H]2[C@H](O)[C@@H](NC(C)=O)C(O)O[C@@H]2CO)O[C@H](CO)[C@@H](O[C@@H]2O[C@H](CO[C@H]3O[C@H](CO[C@H]4O[C@H](CO)[C@@H](O)[C@H](O)[C@@H]4O[C@H]4O[C@H](CO)[C@@H](O)[C@H](O)[C@@H]4O)[C@@H](O)[C@H](O[C@H]4O[C@H](CO)[C@@H](O)[C@H](O)[C@@H]4O[C@H]4O[C@H](CO)[C@@H](O)[C@H](O)[C@@H]4O)[C@@H]3O)[C@@H](O)[C@H](O[C@H]3O[C@H](CO)[C@@H](O)[C@H](O)[C@@H]3O[C@H]3O[C@H](CO)[C@@H](O)[C@H](O)[C@@H]3O[C@H]3O[C@H](CO)[C@@H](O)[C@H](O)[C@@H]3O)[C@@H]2O)[C@@H]1O (stereo partly drawn) [Oligomannose-9]
- cleavage by α-mannosidase (tomato α-mannosidase [2]): able to cleave terminal mannose residue/s

Molecule: CC(C)=CCC/C(C)=C/CO [geraniol]
- α-mannosidase transcript up regulated ([1]; rin mutant seedlings fed with 10% geraniol, after 30 min): up to 6 fold
- up-regulation in mannosidase gene expression ([1]; seedlings, geraniol in 20% DMSO, after 30 min, compared to control (DMSO only)): up to 3 fold
- regulation of α-mannosidase expression ([1]; seedlings): upregulated; also recorded: induced
- solubility in water [3]: not soluble in water

B1: tomato α-mannosidase (Solanum lycopersicum) (protein)
chain: KYMVYNTSQGIVSGKLNVHLVPHTHDDVGWLKTVDQYYVGSNNSIQVACVQNVLDSLIPALLADKNRKFIYVEQAFFQRWWRNQSPGMQSTVKQLVNSGQLESINGGWCMHDEAATHYIDMIDQTTLGHKYIKQQFNVTPRIGWQIDPFGTFCCSGIPSGSKGWIRLSFLWDALTTKDREKRKIEKSLEVIWRGSKSLSSSTQIFSGAFPQNYEPPSKFYFEVNDDNSLPVQDDVNLFDYNVQERVNDFVAAALSQANITRTNHIMWTMGTDFKYQYAHTWFRNMDKLIHYVNQDGRVNALYSSPSIYTDAKYALDESWPLKTDDYFPYADRINAYWTGYFTSRPALKLYVRMMSGYYLAARQLEFFKGRIETGPTTEILADALAIAQHHDAVSGTPKQHVADDYAKRLFIGYKQAEDLVSNSLACMVESASASGCKNPQINFKQCPLLNISYCPPTEADLAPGKKLVVVVYNALGWKRTDVVRIPVVNKNVIVEDSTGKEIESQLLPIVKESIVIRNYYAAAYFGESPTSSPKYWLVFTATVPPLGFSSYVITSGKQAVAASIPQTFYKTDGSQSDAVEVGPGNLKLLYSANGAKFTQYFNKRNQVRSSLEQSFSYYSADDGSKDDYKDIQASGAYVFRPNGSFPIHPEGKVPATILRGPLLDEVHQNINSWIYQITRVYKEKEHVEVEFTVGPIPIDNGIGKELVTQIQTDIKSNKTFYTDSNGRDFLKRVRDYRADWDLQVNQPAAGNYYPINLGLFLKDNNNEFSVLVDRSVGGSSLVDGQLELMLHRRLLNDDGRGVAEALNETVCALGKCMGLTVQGKYYIRIDSLGEGAKWRRSFGQEIYSPLLLAFTEQDGDKFTKFPVPTFTGMDPSYSLPDNVAIITLQELEDHTVLLRLAHLYEVDEDKDLSTKASVELKRLFPKRKINKIREMSLSANQERVEMEKKRLKWKAEAPSDLRDVARGGPVDPTKLMVELAPMEIRTFVIDLSQSVPEGWKSHMSL
- Km [4]: 4.6 mM

B2: tomato α-mannosidase: enzyme purified from pericarp of breaker stage tomato; SEQ ID NO: 2 (protein, listed as Solanum lycopersicum)
chain: MKNMGKFEIWFLILMVCGLWVVEAKYMVYNTSQGIVSGKLNVHLVPHTHDDVGWLKTVDQYYVGSNNSIQVACVQNVLDSLIPALLADKNRKFIYVEQAFFQRWWRNQSPGMQSTVKQLVNSGQLESINGGWCMHDEAATHYIDMIDQTTLGHKYIKQQFNVTPRIGWQIDPFGTFCCSGIPSGSKGWIRLSFLWDALTTKDREKRKIEKSLEVIWRGSKSLSSSTQIFSGAFPQNYEPPSKFYFEVNDDNSLPVQDDVNLFDYNVQERVNDFVAAALSQANITRTNHIMWTMGTDFKYQYAHTWFRNMDKLIHYVNQDGRVNALYSSPSIYTDAKYALDESWPLKTDDYFPYADRINAYWTGYFTSRPALKLYVRMMSGYYLAARQLEFFKGRIETGPTTEILADALAIAQHHDAVSGTPKQHVADDYAKRLFIGYKQAEDLVSNSLACMVESASASGCKNPQINFKQCPLLNISYCPPTEADLAPGKKLVVVVYNALGWKRTDVVRIPVVNKNVIVEDSTGKEIESQLLPIVKESIVIRNYYAAAYFGESPTSSPKYWLVFTATVPPLGFSSYVITSGKQAVAASIPQTFYKTDGSQSDAVEVGPGNLKLLYSANGAKFTQYFNKRNQVRSSLEQSFSYYSADDGSKDDYKDIQASGAYVFRPNGSFPIHPEGKVPATILRGPLLDEVHQNINSWIYQITRVYKEKEHVEVEFTVGPIPIDNGIGKELVTQIQTDIKSNKTFYTDSNGRDFLKRVRDYRADWDLQVNQPAAGNYYPINLGLFLKDNNNEFSVLVDRSVGGSSLVDGQLELMLHRRLLNDDGRGVAEALNETVCALGKCMGLTVQGKYYIRIDSLGEGAKWRRSFGQEIYSPLLLAFTEQDGDKFTKFPVPTFTGMDPSYSLPDNVAIITLQELEDHTVLLRLAHLYEVDEDKDLSTKASVELKRLFPKRKINKIREMSLSANQERVEMEKKRLKWKAEAPSDLRDVARGGPVDPTKLMVELAPMEIRTFVIDLSQSVPEGWKSHMSL
modifications: Protein sequence of alpha mannosidase
- pH optimum (tomato α-mannosidase [5]): 6.0
- temperature optimum (tomato α-mannosidase [5]): 45 °C
- thermal stability without considerable reduction in the activity (tomato α-mannosidase [5]; for 1 hr): ≤ 60 °C

Source: US8962918B2, “Polynucleotide sequence of fruit softening associated A-mannosidase and its uses for enhancing fruit shelf life” (National Institute of Plant Genome Research, priority 2008, dated 2015)
